This assay concerns SARS-CoV-2 replicon. In kind it is cell-based. The following applies: read-out: SARS-CoV-2 Replicon (Huh-7cell) EC50.

Among the data in patent EP4617278A1, “NUCLEOTIDE ANALOG, AND COMPOSITION AND USE THEREOF” (priority 2022, dated 2024) are EC50 values, retold here.

Turning to `CC(C)C(=O)O[C@H]1[C@@H](OC(=O)C(C)C)[C@](C#N)(c2ccc3c(N)ncnn23)O[C@@H]1COP(=O)(OCOC(=O)C(C)(C)C)OCOC(=O)C(C)(C)C` [Compound 29, (2R,3R,4R,5R)-2-(4-aminopyrrolo[2,1-f][1,2,4]triazin-7-yl)-5-((((bis(((tert-butylcarbonyl)oxy)methoxy))phosphoryl)oxy)methyl)-2-cyanotetrahydrofuran-3,4-diyl bis(2-methylpropionate)], the 50% effective concentration (EC50) lay in the range of 10 to 50 nM. As for `CC(C)C(=O)O[C@H]1[C@@H](OC(=O)C(C)C)[C@](C#N)(c2ccc3c(N)ncnn23)O[C@@H]1COP(=O)(OCCSC(=O)C(C)(C)C)OCCSC(=O)C(C)(C)C` [Compound 30, (2R,3R,4R,5R)-2-(4-aminopyrrolo[2,1-f][1,2,4]triazin-7-yl)-5-((((bis(2-(pivaloylthio)ethoxy))phosphoryl)oxy)methyl)-2-cyanotetrahydrofuran-3,4-diyl bis(2-methylpropionate)], the EC50 was under 5 nM.

On to `CCC(CC)COC(=O)[C@H](Cc1ccccc1)N[P@](=O)(OCOC(=O)OC(C)C)OC[C@H]1O[C@@](C#N)(c2ccc3c(N)ncnn23)[C@H](OC(=O)C(C)C)[C@@H]1OC(=O)C(C)C` [Compound 31a, (2R,3R,4R,5R)-2-(4-aminopyrrolo[2,1-f][1,2,4]triazin-7-yl)-2-cyano-5-((((R)-(((S)-1-(2-ethylbutoxy)-1-oxo-3-phenylpropan-2-yl)amino)(((isopropoxycarbonyl)oxy)methoxy)phosphoryl)oxy)methyl)tetrahydrofuran-3,4-diyl bis(2-methylpropionate)], for which the 50% effective concentration (EC50) was 10 to 50 nM. The same measure for `CCC(CC)COC(=O)[C@H](Cc1ccccc1)N[P@@](=O)(OCOC(=O)OC(C)C)OC[C@H]1O[C@@](C#N)(c2ccc3c(N)ncnn23)[C@H](OC(=O)C(C)C)[C@@H]1OC(=O)C(C)C` [Compound 31b, (2R,3R,4R,5R)-2-(4-aminopyrrolo[2,1-f][1,2,4]triazin-7-yl)-2-cyano-5-((((S)-(((S)-1-(2-ethylbutoxy)-1-oxo-3-phenylpropan-2-yl)amino)(((isopropoxycarbonyl)oxy)methoxy)phosphoryl)oxy)methyl)tetrahydrofuran-3,4-diyl bis(2-methylpropionate)]: 10 to 50 nM; for `CCC(CC)COC(=O)C1(N[P@](=O)(OCOC(=O)OC(C)C)OC[C@H]2O[C@@](C#N)(c3ccc4c(N)ncnn34)[C@H](OC(=O)C(C)C)[C@@H]2OC(=O)C(C)C)CCC1` [Compound 32a, (2R,3R,4R,5R)-2-(4-aminopyrrolo[2,1-f][1,2,4]triazin-7-yl)-2-cyano-5-((((R)-((1-((2-ethylbutoxy)carbonyl)cyclobutyl)amino)(((isopropoxycarbonyl)oxy)methoxy)phosphoryl)oxy)methyl)tetrahydrofuran-3,4-diyl bis(2-methylpropionate)]: 10 to 50 nM; for `CCC(CC)COC(=O)C1(N[P@@](=O)(OCOC(=O)OC(C)C)OC[C@H]2O[C@@](C#N)(c3ccc4c(N)ncnn34)[C@H](OC(=O)C(C)C)[C@@H]2OC(=O)C(C)C)CCC1` [Compound 32b, (2R,3R,4R,5R)-2-(4-aminopyrrolo[2,1-f][1,2,4]triazin-7-yl)-2-cyano-5-((((S)-((1-((2-ethylbutoxy)carbonyl)cyclobutyl)amino)(((isopropoxycarbonyl)oxy)methoxy)phosphoryl)oxy)methyl)tetrahydrofuran-3,4-diyl bis(2-methylpropionate)]: 10 to 50 nM. `CCCCCOC(=O)C[C@H](N[P@@](=O)(OC[C@H]1O[C@@](C#N)(c2ccc3c(N)ncnn23)[C@H](OC(=O)C(C)C)[C@@H]1OC(=O)C(C)C)Oc1ccccc1)C(=O)OCCCCC` [Compound 38a, (2R,3R,4R,5R)-2-(4-aminopyrrolo[2,1-f][1,2,4]triazin-7-yl)-2-cyano-5-((((R)-(((S)-1,4-dipentyloxy-1,4-dioxobutan-2-yl)amino)(phenoxy)phosphoryl)oxy)methyl)tetrahydrofuran-3,4-diyl bis(2-methylpropionate)]: the EC50 was in the range of 50 to 500 nM. On to `CCCCCOC(=O)C[C@H](N[P@](=O)(OC[C@H]1O[C@@](C#N)(c2ccc3c(N)ncnn23)[C@H](OC(=O)C(C)C)[C@@H]1OC(=O)C(C)C)Oc1ccccc1)C(=O)OCCCCC` [Compound 38b, (2R,3R,4R,5R)-2-(4-aminopyrrolo[2,1-f][1,2,4]triazin-7-yl)-2-cyano-5-((((S)-(((S)-1,4-dipentyloxy-1,4-dioxobutan-2-yl)amino)(phenoxy)phosphoryl)oxy)methyl)tetrahydrofuran-3,4-diyl bis(2-methylpropionate)], for which the EC50 is 10 to 50 nM. `CCCCCOC(=O)C[C@H](N[P@@](=O)(OC[C@H]1O[C@@](C#N)(c2ccc3c(N)ncnn23)[C@H](OC(=O)C(C)C)[C@@H]1OC(=O)C(C)C)Oc1ccc(C(C)(C)C)cc1)C(=O)OCCCCC` [Compound 39a, (2R,3R,4R,5R)-2-(4-aminopyrrolo[2,1-f][1,2,4]triazin-7-yl)-2-cyano-5-((((R)-(((S)-1,4-dipentyloxy-1,4-dioxobutan-2-yl)amino)(4-tert-butylphenoxy)phosphoryl)oxy)methyl)tetrahydrofuran-3,4-diyl bis(2-methylpropionate)]: the concentration giving a half-maximal response (EC50) is 50 to 500 nM. On to `CCCCCOC(=O)C[C@H](N[P@](=O)(OC[C@H]1O[C@@](C#N)(c2ccc3c(N)ncnn23)[C@H](OC(=O)C(C)C)[C@@H]1OC(=O)C(C)C)Oc1ccc(C(C)(C)C)cc1)C(=O)OCCCCC` [Compound 39b, (2R,3R,4R,5R)-2-(4-aminopyrrolo[2,1-f][1,2,4]triazin-7-yl)-2-cyano-5-((((S)-(((S)-1,4-dipentyloxy-1,4-dioxobutan-2-yl)amino)(4-tert-butylphenoxy)phosphoryl)oxy)methyl)tetrahydrofuran-3,4-diyl bis(2-methylpropionate)], for which the EC50 fell in the range of 10 to 50 nM. To `CCC(CC)COC(=O)C1(N[P@@](=O)(OC[C@H]2O[C@@](C#N)(c3ccc4c(N)ncnn34)[C@H](OC(=O)C(C)C)[C@@H]2OC(=O)C(C)C)Oc2ccccc2)CCC1` [Compound 40a, (2R,3R,4R,5R)-2-(4-aminopyrrolo[2,1-f][1,2,4]triazin-7-yl)-2-cyano-5-((((R)-((1-((2-ethylbutoxy)carbonyl)cyclobutyl)amino)(phenoxy)phosphoryl)oxy)methyl)tetrahydrofura n-3,4-diyl bis(2-methylpropionate)] belongs 10 to 50 nM; to `CCC(CC)COC(=O)C1(N[P@](=O)(OC[C@H]2O[C@@](C#N)(c3ccc4c(N)ncnn34)[C@H](OC(=O)C(C)C)[C@@H]2OC(=O)C(C)C)Oc2ccccc2)CCC1` [Compound 40b, (2R,3R,4R,5R)-2-(4-aminopyrrolo[2,1-f][1,2,4]triazin-7-yl)-2-cyano-5-((((S)-((1-((2-ethylbutoxy)carbonyl)cyclobutyl)amino)(phenoxy)phosphoryl)oxy)methyl)tetrahydrofura n-3,4-diyl bis(2-methylpropionate)], 50 to 500 nM; to `CCC(CC)COC(=O)[C@H](Cc1ccccc1)N[P@@](=O)(OC[C@H]1O[C@@](C#N)(c2ccc3c(N)ncnn23)[C@H](OC(=O)C(C)C)[C@@H]1OC(=O)C(C)C)Oc1ccccc1` [Compound 41a, (2R,3R,4R,5R)-2-(4-aminopyrrolo[2,1-f][1,2,4]triazin-7-yl)-2-cyano-5-((((R)-(((S)-1-(2-ethylbutoxy)-1-oxo-3-phenylpropan-2-yl)amino)(phenoxy)phosphoryl)oxy)methyl)tetrahydrofuran-3,4-diyl bis(2-methylpropionate)], 50 to 500 nM. `CCC(CC)COC(=O)[C@H](Cc1ccccc1)N[P@](=O)(OC[C@H]1O[C@@](C#N)(c2ccc3c(N)ncnn23)[C@H](OC(=O)C(C)C)[C@@H]1OC(=O)C(C)C)Oc1ccccc1` [Compound 41b, (2R,3R,4R,5R)-2-(4-aminopyrrolo[2,1-f][1,2,4]triazin-7-yl)-2-cyano-5-((((S)-(((S)-1-(2-ethylbutoxy)-1-oxo-3-phenylpropan-2-yl)amino)(phenoxy)phosphoryl)oxy)methyl)tetrahydrofuran-3,4-diyl bis(2-methylpropionate)]: the 50% effective concentration (EC50) lay in the range of 5 to 10 nM.

Take `CC(=O)OCO[P@@](=O)(OC[C@H]1O[C@@](C#N)(c2ccc3c(N)ncnn23)[C@H](OC(=O)C(C)C)[C@@H]1OC(=O)C(C)C)Oc1ccc(C(C)(C)C)cc1` [Compound 43a, (2R,3R,4R,5R)-2-(4-aminopyrrolo[2,1-f][1,2,4]triazin-7-yl)-5-(((((S)-acetoxylmethoxy)(4-tert-butylphenoxy)phosphoryl)oxy)methyl)-2-cyanotetrahydrofuran-3,4-diyl bis(2-methylpropionate)]: the concentration for a half-maximal effect (EC50) lay in the range of 5 to 10 nM. As for `CC(=O)OCO[P@](=O)(OC[C@H]1O[C@@](C#N)(c2ccc3c(N)ncnn23)[C@H](OC(=O)C(C)C)[C@@H]1OC(=O)C(C)C)Oc1ccc(C(C)(C)C)cc1` [Compound 43b, (2R,3R,4R,5R)-2-(4-aminopyrrolo[2,1-f][1,2,4]triazin-7-yl)-5-(((((R)-acetoxylmethoxy)(4-tert-butylphenoxy)phosphoryl)oxy)methyl)-2-cyanotetrahydrofuran-3,4-diyl bis(2-methylpropionate)], the EC50 was in the range of 5 to 10 nM. The same measure for `CC(C)C(=O)O[C@H]1[C@@H](OC(=O)C(C)C)[C@](C#N)(c2ccc3c(N)ncnn23)O[C@@H]1CO[P@](=O)(OCOC(=O)C(C)(C)C)Oc1ccc(C(C)(C)C)cc1` [Compound 44a, (2R,3R,4R,5R)-2-(4-aminopyrrolo[2,1-f][1,2,4]triazin-7-yl)-5-(((((S)-4-tert-butylphenoxy)(((tert-butylcarbonyl)oxy)methoxy)phosphoryl)oxy)methyl)-2-cyanotetrahydrofuran-3,4-diyl bis(2-methylpropionate)]: 5 to 10 nM.

Take `CC(C)C(=O)O[C@H]1[C@@H](OC(=O)C(C)C)[C@](C#N)(c2ccc3c(N)ncnn23)O[C@@H]1CO[P@@](=O)(OCOC(=O)C(C)(C)C)Oc1ccc(C(C)(C)C)cc1` [Compound 44b, (2R,3R,4R,5R)-2-(4-aminopyrrolo[2,1-f][1,2,4]triazin-7-yl)-5-(((((R)-4-tert-butylphenoxy)(((tert-butylcarbonyl)oxy)methoxy)phosphoryl)oxy)methyl)-2-cyanotetrahydrofuran-3,4-diyl bis(2-methylpropionate)]: the concentration giving a half-maximal response (EC50) lay within 10 to 50 nM. In the case of `CC(C)C(=O)OCOP(=O)(OCOC(=O)C(C)C)OC[C@H]1O[C@@](C#N)(c2ccc3c(N)ncnn23)[C@H](OC(=O)C(C)C)[C@@H]1OC(=O)C(C)C` [Compound 45], the EC50 is at most 5 nM.

The EC50 is the concentration giving half of the maximal effect.
